Where a name gives a salt, the structure may show the parent alone. Read-outs that look alike come from different tables or passages of the source.
Assays:
Pim-2 = Pim-2 (Homo sapiens (Human), UniProt Q9P1W9); test: Pim-Mn enzyme assay (HTRF, 384-well), Pim-2; format: biochemical; conditions: Pim-2 enzyme 0.5 pM, ATP 1.5 μM, BAD (S112) 0.5 μM, HTRF, 22-point curve; read-out: Pim-2-Mn IC50 IP
KMS-12-BM cell lines = test: KMS12 #2 flow cytometry assay (phospho-BAD Ser112); format: cell-based; conditions: read-out: KMS-12-Flow IC50 IP
Pim-1 = Pim-1 (Homo sapiens (Human), UniProt P11309); test: Pim-Mn enzyme assay (HTRF, 384-well), Pim-1; format: biochemical; conditions: Pim-1 enzyme 5 pM, ATP 1.5 μM, BAD (S112) 0.5 μM, HTRF, 22-point curve; read-out: Pim-1-Mn IC50 IP
[1] = KMS-12-BM cells, pBAD Ser112 by flow cytometry, 110 min with compound
[2] = Homo sapiens, 110 min, KMS-12-BM cells, pBAD Ser112 by flow cytometry, 110 min with compound

Chain of Pim-1 (P11309 whole entry): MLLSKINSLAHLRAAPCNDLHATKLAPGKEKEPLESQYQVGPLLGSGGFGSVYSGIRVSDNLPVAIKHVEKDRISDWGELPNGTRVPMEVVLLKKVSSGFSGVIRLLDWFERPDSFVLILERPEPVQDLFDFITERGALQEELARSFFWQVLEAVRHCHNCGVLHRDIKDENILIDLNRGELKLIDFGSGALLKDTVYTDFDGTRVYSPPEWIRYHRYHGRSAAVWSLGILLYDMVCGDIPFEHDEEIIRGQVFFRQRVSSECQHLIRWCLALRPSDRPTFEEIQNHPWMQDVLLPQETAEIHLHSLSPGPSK
Chain of Pim-2 (Q9P1W9 whole entry): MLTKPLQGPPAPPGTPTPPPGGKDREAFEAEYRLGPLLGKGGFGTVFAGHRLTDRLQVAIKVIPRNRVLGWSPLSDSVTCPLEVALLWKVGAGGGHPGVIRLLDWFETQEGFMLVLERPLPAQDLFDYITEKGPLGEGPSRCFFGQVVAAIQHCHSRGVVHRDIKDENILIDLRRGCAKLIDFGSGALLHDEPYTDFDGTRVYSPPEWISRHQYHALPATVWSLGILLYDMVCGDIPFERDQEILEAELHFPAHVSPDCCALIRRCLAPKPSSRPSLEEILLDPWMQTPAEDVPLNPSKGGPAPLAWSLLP

Row | SMILES | IC50 (KMS-12-BM cell lines; [2]) [nM] | other results
1 | Cc1nc2cccc(-c3cc4c([nH]3)CCNC4=O)c2nc1N[C@H]1C[C@@H](NC(=O)OC(C)(C)C)C1 [Example 434, tert-butyl ((1s,3s)-3-((3-methyl-8-(4-oxo-4,5,6,7-tetrahydro-1H-pyrrolo[3,2-c]pyridin-2-yl)quinoxalin-2-yl)amino)cyclobutyl)carbamate] | – | IC50 (Pim-2): 17.2 nM; IC50 (KMS-12-BM cell lines; [1]): 1310 nM; IC50 (Pim-1): 18.1 nM
2 | COCCN(CCOC)CCC(C)(C)Nc1nc2c(-c3cc4c([nH]3)CNC4=O)cccc2c(=O)n1C [Example 473, 2-((4-(bis(2-methoxyethyl)amino)-2-methylbutan-2-yl)amino)-3-methyl-8-(4-oxo-1,4,5,6-tetrahydropyrrolo[3,4-b]pyrrol-2-yl)quinazolin-4(3H)-one] | 12400 | IC50 (Pim-2): 36 nM; IC50 (Pim-1): 11.4 nM
3 | Cc1nc2cccc(-c3[nH]c4c(c3Cl)C(=O)NCC4)c2nc1NC(C)(C)C [Example 348, 2-(3-(tert-butylamino)-2-methyl-5-quinoxalinyl)-3-chloro-1,5,6,7-tetrahydro-4H-pyrrolo[3,2-c]pyridin-4-one] | 190 | –
4 | Cc1nc2cccc(-c3cc4c(n3C)C(CO)NC4=O)c2nc1NC(C)(C)C (racemic) [Example 470, (R)-2-(3-(tert-butylamino)-2-methylquinoxalin-5-yl)-6-(hydroxymethyl)-1-methyl-5,6-dihydropyrrolo[3,4-b]pyrrol-4(1H)-one and (S)-2-(3-(tert-butylamino)-2-methylquinoxalin-5-yl)-6-(hydroxymethyl)-1-methyl-5,6-dihydropyrrolo[3,4-b]pyrrol-4(1H)-one] | 1280 | –
5 | Cc1nc2cccc(-c3cc4c([nH]3)[C@H](C)NC4=O)c2nc1NCC(F)F [Example 383, (S)-2-(3-((2,2-difluoroethyl)amino)-2-methylquinoxalin-5-yl)-6-methyl-5,6-dihydropyrrolo[3,4-b]pyrrol-4(1H)-one] | 445 | –
6 | Cc1nc2ccc(F)c(-c3cc4c([nH]3)[C@@H](C)NC4=O)c2nc1NC(C)(C)C [Example 297, (6R)-2-(3-(tert-butylamino)-6-fluoro-2-methyl-5-quinoxalinyl)-6-methyl-5,6-dihydropyrrolo[3,4-b]pyrrol-4(1H)-one] | 28.4 | –
7 | Cc1nc2cccc(-c3cc4c([nH]3)CCNC4=O)c2nc1-c1cnccc1Cl [Example 412, 2-(3-(4-chloro-3-pyridinyl)-2-methyl-5-quinoxalinyl)-1,5,6,7-tetrahydro-4H-pyrrolo[3,2-c]pyridin-4-one] | 21800 | –
8 | Cc1nc2cccc(-c3cc4c([nH]3)CCNC4=O)c2nc1-c1cccnc1Cl [Example 410, 2-(3-(2-chloro-3-pyridinyl)-2-methyl-5-quinoxalinyl)-1,5,6,7-tetrahydro-4H-pyrrolo[3,2-c]pyridin-4-one] | 21700 | –
9 | Cn1c(NC(C)(C)C)nc2c(-c3cc4c([nH]3)CNC4=O)cccc2c1=O [Example 419, 2-(tert-butylamino)-3-methyl-8-(4-oxo-1,4,5,6-tetrahydropyrrolo[3,4-b]pyrrol-2-yl)-4(3H)-quinazolinone] | 48.3 | –
10 | Cc1nc2cccc(-c3cc4c([nH]3)CCNC4=O)c2nc1-c1c(F)cccc1Cl [Example 414, 2-(3-(2-chloro-6-fluorophenyl)-2-methyl-5-quinoxalinyl)-1,5,6,7-tetrahydro-4H-pyrrolo[3,2-c]pyridin-4-one] | 5860 | –
11 | Cc1nc2cccc(-c3cc4c([nH]3)CCNC4=O)c2nc1N[C@H]1C[C@@H](N)C1 [Example 435, 2-(3-((cis-3-aminocyclobutyl)amino)-2-methylquinoxalin-5-yl)-6,7-dihydro-1H-pyrrolo[3,2-c]pyridin-4(5H)-one hydrochloride] | 3000 | IC50 (Pim-1): 0.347 nM
12 | Cc1nc2cccc(-c3cc4c([nH]3)CCCNC4=O)c2nc1NC(C)(C)C [Example 305, 2-(3-(tert-butylamino)-2-methylquinoxalin-5-yl)-5,6,7,8-tetrahydropyrrolo[3,2-c]azepin-4(1H)-one] | 1640 | IC50 (Pim-1): 2.63 nM
13 | Cc1nc2cccc(-c3cc4c([nH]3)CCNC4=O)c2nc1N[C@H]1C[C@@H](NCC(F)(F)F)C1 [Example 444] | 471 | –
14 | Cc1nc2cccc(-c3cc4c([nH]3)C(CCN)NC4=O)c2nc1NC(C)(C)C (centres unmarked) [Example 463, 6-(2-aminoethyl)-2-(3-(tert-butylamino)-2-methyl-5-quinoxalinyl)-5,6-dihydropyrrolo[3,4-b]pyrrol-4(1H)-one] | 9 | –
15 | Cc1nc2cccc(-c3cc4c([nH]3)[C@@H](C)NC4=S)c2nc1NC(C)(C)C [Example 332, (6R)-2-(3-(tert-butylamino)-2-methyl-5-quinoxalinyl)-6-methyl-5,6-dihydropyrrolo[3,4-b]pyrrole-4(1H)-thione] | > 40000 | –
16 | Cc1nc2cccc(-c3cc4c([nH]3)CCNC4=O)c2nc1N[C@H]1C[C@@H](N2CCOC2=O)C1 [Example 443, 3-((1s,3s)-3-((3-methyl-8-(4-oxo-4,5,6,7-tetrahydro-1H-pyrrolo[3,2-c]pyridin-2-yl)quinoxalin-2-yl)amino)cyclobutyl)oxazolidin-2-one] | – | IC50 (KMS-12-BM cell lines; [1]): > 40000 nM

Row | SMILES | IC50 (KMS-12-BM cell lines; [2]) [nM] | other results
17 | Cc1nc2cccc(-c3cc4c([nH]3)CCNC4=O)c2nc1NC(C)(C)CCS(C)(=O)=O [Example 338, 2-(3-((1,1-dimethyl-3-(methylsulfonyl)propyl)amino)-2-methyl-5-quinoxalinyl)-1,5,6,7-tetrahydro-4H-pyrrolo[3,2-c]pyridin-4-one] | 14300 | –
18 | Cn1c(NC(C)(C)C)nc2c(-c3cc4c([nH]3)CCNC4=O)cccc2c1=O [Example 448, 2-(tert-butylamino)-3-methyl-8-(4-oxo-4,5,6,7-tetrahydro-1H-pyrrolo[3,2-c]pyridin-2-yl)-4(3H)-quinazolinone] | 30.8 | IC50 (Pim-2): 0.169 nM
19 | Cc1nc2cccc(-c3cc4c([nH]3)[C@H](C)NC4=O)c2nc1NC(C)(C)C [Example 327, (6S)-2-(3-(tert-butylamino)-2-methyl-5-quinoxalinyl)-6-methyl-5,6-dihydropyrrolo[3,4-b]pyrrol-4(1H)-one] | 98.6 | –
20 | Cc1nc2ccc(F)c(-c3cc4c([nH]3)[C@H](C)NC4=O)c2nc1NC(C)(C)C [Example 298, (6S)-2-(3-(tert-butylamino)-6-fluoro-2-methyl-5-quinoxalinyl)-6-methyl-5,6-dihydropyrrolo[3,4-b]pyrrol-4(1H)-one] | 57.1 | –
21 | C[C@H]1NC(=O)c2cc(-c3cccc4c(=O)[nH]c(N(C)C(C)(C)C)nc34)[nH]c21 [Example 407, 2-(tert-butyl(methyl)amino)-8-((6R)-6-methyl-4-oxo-1,4,5,6-tetrahydropyrrolo[3,4-b]pyrrol-2-yl)-4(3H)-quinazolinone] | 144 | IC50 (Pim-2): 0.4 nM
22 | Cc1nc2cccc(-c3cc4c([nH]3)[C@@H](C)NC4=O)c2nc1NCC(F)F [Example 382, (R)-2-(3-((2,2-difluoroethyl)amino)-2-methylquinoxalin-5-yl)-6-methyl-5,6-dihydropyrrolo[3,4-b]pyrrol-4(1H)-one] | 82.5 | –
23 | CC(=O)N1CCc2[nH]c(-c3cccc4nc(C)c(NC(C)(C)C)nc34)cc2C1=O [Example 315, 5-acetyl-2-(3-(tert-butylamino)-2-methylquinoxalin-5-yl)-6,7-dihydro-1H-pyrrolo[3,2-c]pyridin-4(5H)-one] | 895 | IC50 (Pim-1): 35.2 nM
24 | C[C@H]1NC(=O)c2cc(-c3cccc4c(=O)n(C5CC5)c(NC(C)(C)C)nc34)[nH]c21 [Example 475, 2-(tert-butylamino)-3-cyclopropyl-8-((6R)-6-methyl-4-oxo-1,4,5,6-tetrahydropyrrolo[3,4-b]pyrrol-2-yl)-4(3H)-quinazolinone] | 28 | –
25 | Cn1c(NC(C)(C)C)nc2c(-c3cc4c([nH]3)C3(CC3)NC4=O)cccc2c1=O [Example 456, 2′-(2-(tert-butylamino)-3-methyl-4-oxo-3,4-dihydro-8-quinazolinyl)-1′H-spiro[cyclopropane-1,6′-pyrrolo[3,4-b]pyrrol]-4′(5′H)-one] | 29.4 | –
26 | Cc1nc2cccc(-c3cc4c([nH]3)CCNC4=O)c2nc1NC(C)(C)CNC(=O)OC(C)(C)C [Example 339, tert-butyl (2-methyl-2-((3-methyl-8-(4-oxo-4,5,6,7-tetrahydro-1H-pyrrolo[3,2-c]pyridin-2-yl)-2-quinoxalinyl)amino)propyl)carbamate] | 2520 | IC50 (Pim-1): 50.8 nM
27 | Cc1nc2cccc(-c3cc4c([nH]3)CCNC4=O)c2nc1-c1ccc(N)cc1Cl [Example 413, 2-(3-(4-amino-2-chlorophenyl)-2-methyl-5-quinoxalinyl)-1,5,6,7-tetrahydro-4H-pyrrolo[3,2-c]pyridin-4-one] | > 40000 | –
28 | CC(C)(C)Nc1ccc2cccc(-c3cc4c([nH]3)CCNC4=O)c2n1 [Example 340, 2-(2-(tert-butylamino)-8-quinolinyl)-1,5,6,7-tetrahydro-4H-pyrrolo[3,2-c]pyridin-4-one] | 595 | –
29 | CCn1c(NC(C)(C)C)nc2c(-c3cc4c([nH]3)[C@@H](C)NC4=O)cccc2c1=O [Example 481, (R)-2-(tert-butylamino)-3-ethyl-8-(6-methyl-4-oxo-1,4,5,6-tetrahydropyrrolo[3,4-b]pyrrol-2-yl)quinazolin-4(3H)-one] | – | IC50 (KMS-12-BM cell lines; Homo sapiens, KMS-12-BM, 110 min): 20 nM
30 | C[C@H]1NC(=O)c2cc(-c3c(F)ccc4c(=O)n(C)c(NC(C)(C)C)nc34)[nH]c21 [Example 405, 2-(tert-butylamino)-7-fluoro-3-methyl-8-((6R)-6-methyl-4-oxo-1,4,5,6-tetrahydropyrrolo[3,4-b]pyrrol-2-yl)-4(3H)-quinazolinone] | 28 | –
31 | Cc1nc2cccc(-c3cc4c([nH]3)CCN/C4=N\O)c2nc1NC(C)(C)C [Example 300, (E/Z)-2-(3-(tert-butylamino)-2-methylquinoxalin-5-yl)-6,7-dihydro-1H-pyrrolo[3,2-c]pyridin-4(5H)-one oxime] | > 10000 | –

— patent US9394297B2, “Amides as pim inhibitors” (AMGEN INC., priority 2012, dated 2016)
